The test system of assay [1] is human umbilical vein endothelial (Hu-V-ec) cells. The assay can be described thus: VEGF-directed cytotoxicity assay, cell growth by [3H]-thymidine incorporation. The assay is classed as cell-based. As to the method: Confluent Hu-V-ec cells were cultured in the absence (control, lane 1) or presence of 1mM CMDA prodrug (+ CMDA, lane 2) for 18 hours. After incubation, the cells were diluted into fresh dishes (at a dilution of 3 fold) and allowed to grow for a further 6 days after which time the survival of the cells was determined by [^3H] thymidine incorporation. The results are expressed in terms of the % growth in terms of the control, which were considered to represent 100% cell growth.
Confluent Hu-V-ec cells were cultured in the absence of any additions (control, lane 3) or in the presence of CPH6 (27 nM, lane 4), or of V115CPH6 (11nM, lane 5) for 30 min. The cells were then washed 6 times with fresh medium and incubated overnight in the presence of 1mM CMDA. The cells were re-plated at a dilution of 1/3 and allowed to grow for a further 4 days after which time the cell growth was estimated by [3H]thymidine incorporation. The results are expressed in terms of the % growth in terms of the control lane, which were considered to represent 100% cell growth.
The fusion proteins were assesed for their ability to direct the CMDA-dependent killing of cells which express specific receptors for VEGF on their surface. For this analysis, we employed human umbilical vein endothelial (Hu-V-ec) cells, which are dependent for growth on VEGF (Prog Growth Factor Res, 5, 89, 1994). […] The cells were incubated in the presence of CPH6, or V115CPH6 for 30 min to allow the fusion proteins to bind to the cell surface and then the cells were washed to remove unbound protein. CMDA was added and cell survival was determined by [3H]-thymidine incorporation.
In general terms: Incorporation of labelled thymidine or its analogues reports DNA synthesis.

Assay [2] relates to NIH3T3 cells. The assay is described as follows: Non-specific cytotoxicity assay, cell growth by [3H]-thymidine incorporation. Format: cell-based. The procedure:
Confluent NIH3T3 cells were cultured in the absence (control, lane 1) or presence of 1mM CMDA prodrug (+CMDA, lane 2) for 18 hours. After incubation, the cells were diluted into fresh dishes (at a dilution of 100 fold) and allowed to grow for a further 6 days after which time the survival of the cells was determined by [^3H] thymidine incorporation. The results are expressed in terms of the % growth in terms of the control, which were considered to represent 100% cell growth.
Confluent NIH3T3 cells were cultured in the presence of 1mM CMDA prodrug in the absence of any additions (control, lane 3) or in the presence of the indicated fusion proteins (lanes 4-8). The additions were : lane 4, CPH6; lane 5, CPV161H6; lane 6, V161CPH6; lane 7, V115CPH6; lane 8, pEFCPV109H6. For each fusion, 0.3 to 0.9 nM of the fusions were added as determined by quantitative immunoprotein blotting. The cells were incubated and processed as in section A above for cell growth. […]
For the first assay, we wished to establish that CPH6 and the fusion proteins were able to direct prodrug dependent cyotoxicity of NIH3T3 cells, in a non-targeted manner. […] Samples of the purified proteins were added to NIH3T3 cells in the presence of the CMDA prodrug and the effects on cell viability were determined by measuring cell growth by [3H]-thymidine incorporation.

Assay [3] addresses VEGF/CPG2 fusion protein V115CPH6 (VEGF amino acids 1-115 fused to CPG2, polyhistidine tag), SEQ ID No. 10 (UniProt P06621+P15692, form not given/N222Q/N264Q/N272Q). The following applies: substrate MTX; V115CPH6 expressed in Sf9 cells, Ni++-NTA purified; 25°C, pH 7.3. An excerpt: (§1) Using this protocol, CPH6, V161CPH6, V115CPH6 and CPV109H6 were all purified from Sf9 cells by Ni++-NTA-Agarose affinity chromatography as described above. These samples were used to determine the affinity of the CPG2 moiety for the substrate MTX.

The target of assay [4] is VEGF/CPG2 fusion protein V161CPH6 (VEGF amino acids 1-161 fused to CPG2 amino acids 23-415, polyhistidine tag), SEQ ID No. 8 (UniProt P06621+P15692, form not given/N222Q/N264Q/N272Q). The following applies: substrate MTX; V161CPH6 expressed in Sf9 cells, Ni++-NTA purified; 25°C, pH 7.3.
Excerpt: as §1

Assay [5] deals with Carboxypeptidase G2 (CPG2) construct CPH6 (c-erbB2 signal peptide, CPG2 amino acids 23-415, three Asn -> Gln glycosylation-site mutations N222, 264 and 272 > Q, (Pseudomonas sp., UniProt P06621, N222Q/N264Q/N272Q)). The following applies: substrate MTX; CPH6 expressed in Sf9 cells, Ni++-NTA purified; 25°C, pH 7.3.
Excerpt: as §1

Assay [6] concerns the target CPG2/VEGF fusion protein CPV109H6 (CPG2 amino acids 23-415 fused via peptide spacer to VEGF amino acids 1-109, polyhistidine tag), SEQ ID No. 18 (UniProt P06621+P15692, form not given/N222Q/N264Q/N272Q). The following applies: substrate MTX; CPV109H6 expressed in Sf9 cells, Ni++-NTA purified; 25°C, pH 7.3.
Excerpt: as §1

The target of assay [7] is bacterially produced CPG2 (Carboxypeptidase G2, wild type) (Pseudomonas sp., UniProt P06621). The following applies: substrate MTX; cited from earlier work.

Bounds are passed on as bounds.

As to `CS(=O)(=O)OCCN(CCCl)c1ccc(C(=O)N[C@@H](CCC(=O)O)C(=O)O)cc1` [CMDA, N-4-[(2-chloroethyl)(2-mesyloxyethyl)amino]benzoyl-L-glutamic acid], in assay [1] (1mM CMDA alone, 18 hours), the “sensitivity (growth rate)” value is listed as “not significantly sensitive”. Also, the “growth rate of the cells” value in assay [1] (cells pre-incubated with CPH6 (27 nM) 30 min, washed, then 1mM CMDA overnight) is “no significant affect on the growth rate”. Further, the “inhibition of cell growth” value in assay [1] (cells pre-incubated with V115CPH6 (11nM) 30 min, washed, then 1mM CMDA overnight) is reported as greater than 90%. Also, in assay [2] (1mM CMDA alone, 18 hours, then 6 days growth), the growth of cells entry is “does not significantly affect the growth”. Further, the cell death result in assay [2] (1mM CMDA in the presence of sub-nanomolar (0.3 to 0.9 nM) CPH6 or each of the fusion proteins) is listed as “complete cell death”.
Usually Km stands for the concentration of substrate that gives half-maximal velocity. Take `CN(Cc1cnc2nc(N)nc(N)c2n1)c1ccc(C(=O)N[C@@H](CCC(=O)O)C(=O)O)cc1` [MTX, Methotrexate]: the Km in assay [3] was 17 ± 1 µM; in assay [4] it was 18.2 ± 1.5 µM; in assay [5], 19.6 ± 3.2 µM; in assay [6] it was 9.1 ± 1.1 µM; in assay [7] it was roughly 10 µM.
